Source: paper PMC10759932 (Nature cell biology, 2023)

What was measured:
PcaK = biological target: T1, PcaK (Pseudomonas putida, UniProt Q51955); experiment: radiolabelled uptake into E. coli cells; assay type: cell-based; conditions: 50 μM 4-HB; whole E. coli cells; labelled compound
T1 sequence (Q51955 1-448): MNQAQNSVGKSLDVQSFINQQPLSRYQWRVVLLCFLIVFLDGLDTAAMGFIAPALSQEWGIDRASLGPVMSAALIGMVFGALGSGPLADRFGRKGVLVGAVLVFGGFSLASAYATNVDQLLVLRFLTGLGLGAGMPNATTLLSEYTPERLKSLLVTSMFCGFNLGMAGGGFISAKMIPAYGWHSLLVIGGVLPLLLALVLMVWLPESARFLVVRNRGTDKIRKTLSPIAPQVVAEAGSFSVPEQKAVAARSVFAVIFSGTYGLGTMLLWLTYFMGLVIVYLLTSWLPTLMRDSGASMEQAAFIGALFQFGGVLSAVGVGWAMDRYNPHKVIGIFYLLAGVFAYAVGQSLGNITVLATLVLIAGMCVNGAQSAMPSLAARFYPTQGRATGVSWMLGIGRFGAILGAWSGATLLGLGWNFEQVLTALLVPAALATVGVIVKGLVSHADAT

S. pombe Hem25p = S. pombe Hem25p (Schizosaccharomyces pombe, UniProt Q9P6N6); conditions: whole E. coli cells; labelled compound
Chain of S. pombe Hem25p (Q9P6N6 whole entry): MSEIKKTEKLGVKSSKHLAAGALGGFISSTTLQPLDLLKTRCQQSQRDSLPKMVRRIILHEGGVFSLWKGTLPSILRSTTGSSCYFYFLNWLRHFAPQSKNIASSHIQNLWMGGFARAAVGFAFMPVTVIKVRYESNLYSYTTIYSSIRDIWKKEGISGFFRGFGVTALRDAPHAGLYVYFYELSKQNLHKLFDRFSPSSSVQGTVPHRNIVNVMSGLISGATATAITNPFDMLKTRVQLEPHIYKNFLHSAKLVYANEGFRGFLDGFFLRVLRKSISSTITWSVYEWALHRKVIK

Row | radiolabelled uptake into E. coli cells (S. pombe Hem25p) | SMILES | radiolabelled uptake into E. coli cells (PcaK)
1 |  | O=C(O)c1ccc(O)cc1 [4-HB] | Uptake of 4-HB was only seen when the known bacterial 4-HB transporter PcaK was expressed
2 | Hem25p from S. pombe and S. cerevisiae | C=C(C)CCOP(=O)(O)OP(=O)(O)O [IPP] | 
